Results as given in the NIST ThermoML archive (doi:10.1016/j.jct.2005.06.011).
± gives the expanded uncertainty stated by the source.

Columns and labels:
[1] = refractive index (Na D-line) (dimensionless); xn = mol fraction of the nth substance listed; conditions: 101 kPa, Liquid
[2] = xn = mol fraction of the nth substance listed; conditions: 101 kPa, Liquid; for speed of sound: Linear variable-path acoustic interferometer

CC1CCCCC1 [methylcyclohexane] + CCCCO
Conditions	mass density, 298.15 K [kg/m3]	mass density, 303.15 K [kg/m3]	mass density, 308.15 K [kg/m3]	refractive index, 298.15 K	refractive index, 303.15 K	refractive index, 308.15 K	speed of sound, 298.15 K [m/s]	viscosity, 298.15 K [mPa·s]	viscosity, 303.15 K [mPa·s]	viscosity, 308.15 K [mPa·s]
[1], x1 = 0.1021	–	–	–	1.4036 ± 0.0025	1.4015 ± 0.0025	1.3994 ± 0.0025	–	–	–	–
[1], x1 = 0.2041	–	–	–	1.4034 ± 0.0025	1.4008 ± 0.0025	1.3982 ± 0.0025	–	–	–	–
[1], x1 = 0.3027	–	–	–	1.406 ± 0.0025	1.4035 ± 0.0025	1.4009 ± 0.0025	–	–	–	–
[1], x1 = 0.4013	–	–	–	1.4087 ± 0.0025	1.4062 ± 0.0025	1.4037 ± 0.0025	–	–	–	–
[1], x1 = 0.5039	–	–	–	1.4105 ± 0.0025	1.4081 ± 0.0025	1.4057 ± 0.0025	–	–	–	–
[1], x1 = 0.6066	–	–	–	1.4121 ± 0.0025	1.4099 ± 0.0025	1.4076 ± 0.0025	–	–	–	–
[1], x1 = 0.7014	–	–	–	1.4147 ± 0.0025	1.4122 ± 0.0025	1.4097 ± 0.0025	–	–	–	–
[1], x1 = 0.7963	–	–	–	1.4169 ± 0.0025	1.4143 ± 0.0025	1.4117 ± 0.0025	–	–	–	–
[1], x1 = 0.8981	–	–	–	1.4193 ± 0.0025	1.4167 ± 0.0025	1.414 ± 0.0025	–	–	–	–
[1], x1 = 1	–	–	–	1.4217 ± 0.0025	1.4192 ± 0.0025	1.4163 ± 0.0025	–	–	–	–
[2], x1 = 0.1021	801.93 ± 8	797.96 ± 8	793.95 ± 8	–	–	–	1263 ± 4	2.396 ± 0.03	2.122 ± 0.026	1.848 ± 0.023
[2], x1 = 0.2041	795.62 ± 8	791.47 ± 7.9	787.32 ± 7.9	–	–	–	1258 ± 4	2.205 ± 0.028	1.957 ± 0.025	1.709 ± 0.022
[2], x1 = 0.3027	790.23 ± 7.9	786.03 ± 7.9	781.87 ± 7.8	–	–	–	1253 ± 4	2.021 ± 0.025	1.797 ± 0.023	1.573 ± 0.02
[2], x1 = 0.4013	785.45 ± 7.9	781.24 ± 7.8	776.99 ± 7.8	–	–	–	1248 ± 4	1.834 ± 0.023	1.636 ± 0.021	1.438 ± 0.018
[2], x1 = 0.5039	780.86 ± 7.8	776.57 ± 7.8	772.29 ± 7.8	–	–	–	1243 ± 4	1.639 ± 0.021	1.468 ± 0.019	1.296 ± 0.017
[2], x1 = 0.6066	776.73 ± 7.8	772.4 ± 7.8	768.04 ± 7.7	–	–	–	1238 ± 4	1.443 ± 0.019	1.288 ± 0.017	1.153 ± 0.015
[2], x1 = 0.7014	773.21 ± 7.8	768.83 ± 7.7	764.46 ± 7.7	–	–	–	1233 ± 4	1.262 ± 0.016	1.141 ± 0.015	1.021 ± 0.014
[2], x1 = 0.7963	770.14 ± 7.7	765.74 ± 7.7	761.34 ± 7.6	–	–	–	1227 ± 4	1.08 ± 0.014	0.9828 ± 0.013	0.8858 ± 0.012
[2], x1 = 0.8981	767.52 ± 7.7	763.15 ± 7.7	758.77 ± 7.6	–	–	–	1222 ± 4	0.8808 ± 0.012	0.8104 ± 0.011	0.74 ± 0.01
[2], x1 = 1	764.99 ± 7.7	760.66 ± 7.6	756.3 ± 7.6	–	–	–	1217 ± 4	0.6757 ± 0.0095	0.631 ± 0.0089	0.5902 ± 0.0085

CC(C)O [propan-2-ol] + CC1CCCCC1
x2 = 0
Conditions	mass density, 298.15 K [kg/m3]	mass density, 303.15 K [kg/m3]	mass density, 308.15 K [kg/m3]	refractive index, 298.15 K	refractive index, 303.15 K	refractive index, 308.15 K	speed of sound, 298.15 K [m/s]	viscosity, 298.15 K [mPa·s]	viscosity, 303.15 K [mPa·s]	viscosity, 308.15 K [mPa·s]
[1]	–	–	–	1.3765 ± 0.0012	1.3741 ± 0.0012	1.3716 ± 0.0012	–	–	–	–
[2]	781.05 ± 7.8	776.79 ± 7.8	772.43 ± 7.7	–	–	–	1144 ± 4	2.076 ± 0.024	1.786 ± 0.021	1.532 ± 0.018
